{"source": "patent US20140163082A1", "about": "“PYRAZOLYL COMPOUNDS FOR USE IN REVERSING REACTIVE GLIOSIS” (priority 2011, published 2014)", "key": {"ischemic retinas": {"test_system": "ischemic retinas", "test": "Real time RT-PCR analysis, in vivo (OIR retinas)", "parameters": "species or system C57BL/6J mice", "settings": "OIR mice", "description": "mRNA levels for HIF-1, VEGF, PDGF-B, GFAP and iNOS were quantified by Real time RTPCR. We used the primers summarized in [FIG. 6C] for RT-PCR. Gene-specific molecular beacons and primers were designed to encompass the genes of interest, with beacon's annealing site to overlap with the exon-exon junctions for additional specificity [Beacon Designer 6.0, Premier Biosoft International, Palo Alto, Calif., USA]. Threshold cycle [Ct] values for the different samples were utilized for the calculation of gene expression fold change using the formula 2 to the minus power of delta delta ct. Fold changes in the HIF-1, VEGF, PDGF-B, GFAP and iNOS gene relative to the β-actin endogenous control gene were determined by the following equation: fold change=2−Δ[ΔC T], where change in threshold cycle [ΔCT]=CT [gene of interest]−CT [β-actin] and Δ [ΔCT]=ΔCT [treated]−ΔCT [untreated].\nRetinal NV was induced in newborn mice as described previously. Briefly, P7 mice were exposed with their nursing mother, for 5 days [between P7 and P12] to hyperoxic conditions, by incubating them in an airtight chamber [PROOX 110 chamber O2 controller; Biospherix Ltd., Redfield, N.Y.] ventilated by a mixture of O2 and air to a final oxygen fraction of 75±2%. These incubation conditions induced vaso-obliteration and subsequent cessation of vascular development in the capillary beds of the central retina. At P12, the mice were allowed to recover in normal room air conditions and maintained for another 5 days [till P17], the day in which peak disease occurs. A condition of relative hypoxia resulted between P12 and P17, and extensive retinal NV developed in 100% of the mice. Age-matched animals with the hyperoxia-exposed groups were maintained identically, except they were exposed to room air […], 79% N2] for the entire duration of the experiment. All animals were examined and sacrificed on the same days.\nA group of hyperoxia-exposed animals [n=15] were injected intravitreally [into both eyes] at P12 and P15 with 3 μl of YC-1 [100 μM] [drug-treated group]. Another group of hyperoxiaexposed mice [n=15] were injected intravitreally [into both eyes] at P12 and P15 with 3 μl of DMSO [0.2% [v/v]] [mock-treated group]. Non-treated mice grown under ambient conditions, non-treated hyperoxia-exposed mice, DMSO-treated hyperoxia-exposed mice and YC-1-treated hyperoxia-exposed mice, were all examined at different critical time points for qualitative assessment of the retinal vasculature by fluorescein angiography."}, "rMC-1 cells [1]": {"test_system": "rMC-1 cells", "test": "GFAP immunofluorescence, rMC-1", "type": "cell-based", "settings": "for GFAP protein expression (immunofluorescence): vs hypoxic controls", "description": "Cells were placed in airtight chambers [BioSpherix, Redfield, N.Y.] and the O2 tension was maintained at 1.2% by using Pro-Ox Model 110 O2 regulator [BioSpherix, Redfield, N.Y.]. The chamber was purged with a gas mixture of 5.32% CO2, and 93.48% N2. […] Müller cells [rMC-1] and […] cells [2×10^4 cells per well] were grown on 8-well chamber slides and cultured in 300 μl of their growing media, which contained YC-1 [25-100 μM] or DMSO [0.2% v/v] and incubated under normoxia or hypoxia for 48 hours at 37° C. YC-1 or DMSO was added 5 minutes prior to the hypoxic incubation. The cells were fixed 48 hours later with 3.7% paraformaldehyde and permeabilized with 0.2% TritonTM X-100 in PBS. The cells were incubated for two hours with anti-GFAP antibody. Negative control experiments consisted of omission of the primary antibody. Cells were then incubated with HRP-conjugate working solution, followed by the addition of the […] solution [TSA Kit#2 and #4 for rMC-1 and […] staining, respectively] at 1:100 dilutions [Molecular Probes, Carlsbad, Calif.]. Digitized images were acquired utilizing AxioVision software [Zeiss Axiovert 135 and AxioCam]. Intensity values of immunofluorescence staining of GFAP in rMC-1 and […] cells was analyzed and quantified using MetamorphTM imaging analysis software version 6.0 [Universal Imaging, Sunnyvale, Calif.]. The staining intensity in our series ranged from a weak blush to moderate or strong. The amount of cells staining with the antibody was further categorized as focal [<10%], patchy [10%-50%], and diffuse [>50%]. For semiquantitative analysis, focal and/or weak staining was considered equivocal staining, and patchy or diffuse staining was subcategorized as either moderate or strong."}, "rMC-1 cells [2]": {"test_system": "rMC-1 cells"}, "[3]": {"settings": "100 μM YC-1, vs DMSO-treated retinas"}, "[4]": {"settings": "rMC-1, 25 μM YC-1, hypoxia 48 hours"}}, "data": [{"smiles": "OCc1ccc(-c2nn(Cc3ccccc3)c3ccccc23)o1", "note": "[YC-1, 3-(5′-hydroxymethyl-2′-furyl)-1-benzylindazole]", "values": [{"measurement": "PDGF-B message (mRNA) level in retina", "setting": "ischemic retinas; [3]", "value": "significantly attenuated"}, {"measurement": "VEGF message (mRNA) level in retina", "setting": "ischemic retinas; [3]", "value": "significantly attenuated"}, {"measurement": "iNOS message (mRNA) level in retina", "setting": "ischemic retinas; [3]", "value": "significantly attenuated"}, {"measurement": "HIF-1α message (mRNA) level in retinal tissue", "setting": "ischemic retinas; YC-1", "value": "did not have any influence"}, {"measurement": "GFAP message (mRNA) level in retina", "setting": "ischemic retinas; YC-1 dual injection, vs DMSO, normalized to β-actin", "value": "significantly attenuated"}, {"measurement": "GFAP cytoplasmic staining pattern/intensity (immunofluorescence)", "setting": "rMC-1 cells [1]; [4]", "value": "weaker equivocal staining intensity"}, {"measurement": "GFAP staining vs DMSO-treated hypoxic controls (immunofluorescence)", "setting": "rMC-1 cells [1]; [4]", "value": "remarkable inhibition"}, {"measurement": "GFAP protein expression (immunofluorescence)", "setting": "rMC-1 cells [1]; rMC-1, 50 μM YC-1, hypoxia", "value": "significant inhibitory effects"}, {"measurement": "GFAP protein expression (immunofluorescence)", "setting": "rMC-1 cells [1]; rMC-1, 75 μM YC-1, hypoxia", "value": "significant inhibitory effects"}, {"measurement": "GFAP staining remaining in cytoplasm (immunofluorescence)", "setting": "rMC-1 cells [1]; rMC-1, 100 μM YC-1, hypoxia", "value": "few stained regions"}, {"measurement": "GFAP protein levels (quantified staining intensity, FIG. 11C)", "setting": "rMC-1 cells [1]; rMC-1, hypoxia, dose-dependent fashion", "value": "significantly reduced"}, {"measurement": "cell viability (DAPI exclusion)", "setting": "rMC-1 cells [2]", "value": "comprised the majority of cells"}]}]}
